We go through 16 compounds from ChEMBL document CHEMBL3044591, “Biological Activity of Some 2-Arylamino-4-aryloxyacetyl-2-1, 3, 4-thiadiazolidine Derivatives” (1994).

What all share (format): functional
Experiment [1] has as its system Aspergillus niger. Nature of the experiment: Fungicidal activity against Aspergillus niger assessed as inhibition at 10 ppm measured after 96 hr by agar growth technique.
Experiment [2] has as its system Aspergillus niger. Nature of the experiment: Fungicidal activity against Aspergillus niger assessed as inhibition at 100 ppm measured after 96 hr by agar growth technique.
Experiment [3] relates to Bipolaris oryzae. Nature of the experiment: Fungicidal activity against Bipolaris oryzae assessed as inhibition at 10 ppm measured after 96 hr by agar growth technique.
For experiment [4], the system named is Bipolaris oryzae. Description: Fungicidal activity against Bipolaris oryzae assessed as inhibition at 100 ppm measured after 96 hr by agar growth technique.
Experiment [5] deals with Aspergillus niger. Description: Fungicidal activity against Aspergillus niger assessed as inhibition at 1000 ppm measured after 96 hr by agar growth technique.
A further experiment concerns Echinochloa crus-galli. Nature of the experiment: Herbicidal activity against Echinochloa crus-galli (barnyard grass) assessed as killing at 6 kg/ha by post-emergent activity assay.
Experiment [6] has as its system Bipolaris oryzae. Description: Fungicidal activity against Bipolaris oryzae assessed as inhibition at 1000 ppm measured after 96 hr by agar growth technique.
A further experiment deals with Sorghum halepense. Description: Herbicidal activity against Sorghum halepense (Johnson grass) assessed as killing at 6 kg/ha by post-emergent activity assay.
For another experiment, the system named is Setaria viridis. Description: Herbicidal activity against Setaria viridis (green foxtail) assessed as killing at 6 kg/ha by post-emergent activity assay.
The test system of a further experiment is Abutilon theophrasti. Description: Herbicidal activity against Abutilon theophrasti (velvetleaf) assessed as killing at 6 kg/ha by post-emergent activity assay.
For another experiment, the system named is Triticum aestivum. Nature of the experiment: Herbicidal activity against Triticum aestivum (wheat) assessed as killing at 6 kg/ha by post-emergent activity assay.

Structures are written as SMILES.

Turning to `COc1ccc(NC2=NN(C(=O)COc3ccccc3Cl)C(C)(C)S2)cc1`, the inhibition at 10 ppm in the experiment on Aspergillus niger [1] was found to be 37%; with Bipolaris oryzae [3] it was 31%. Moreover, the inhibition at 100 ppm is 56% in the experiment with Aspergillus niger [2] and 53% with Bipolaris oryzae [4]. The inhibition at 1000 ppm in the experiment with Aspergillus niger [5] came to 65%; in the experiment on Bipolaris oryzae [6] it was 60%. Also, the Activity in the experiment on Echinochloa crus-galli is 100%; in the experiment with Sorghum halepense, 100%; in the experiment on Setaria viridis it was 100%; in the experiment on Abutilon theophrasti it was 100%; in the experiment with Triticum aestivum, 10%.

With `Cc1ccc(NC2=NN(C(=O)COc3cccc(C)c3)C(C)(C)S2)cc1`, the inhibition at 10 ppm with Aspergillus niger [1] was determined as 54%; in the experiment with Bipolaris oryzae [3] it was 48%. Also, the inhibition at 100 ppm in the experiment on Aspergillus niger [2] was determined as 68%; in the experiment with Bipolaris oryzae [4], 63%. Besides, the values for the inhibition at 1000 ppm in the experiment with Aspergillus niger [5] and with Bipolaris oryzae [6] were 75% and 71%, respectively. Moreover, the Activity with Echinochloa crus-galli amounted to 60%; with Sorghum halepense, 50%; with Setaria viridis, 20%; in the experiment on Abutilon theophrasti, 30%; in the experiment on Triticum aestivum, 15%.

Take `Cc1ccc(NC2=NN(C(=O)COc3ccccc3Cl)C(C)(C)S2)cc1`: the inhibition at 10 ppm in the experiment with Aspergillus niger [1] stood at 49%; with Bipolaris oryzae [3] it was 32%. In addition, the inhibition at 100 ppm in the experiment on Aspergillus niger [2] came out at 52%; with Bipolaris oryzae [4], 44%. Moreover, the inhibition at 1000 ppm with Aspergillus niger [5] came to 63%; in the experiment with Bipolaris oryzae [6] it was 56%. Besides, the Activity with Echinochloa crus-galli worked out at 20%; in the experiment with Sorghum halepense, 50%; in the experiment with Setaria viridis it was 50%; in the experiment with Abutilon theophrasti, 50%; in the experiment with Triticum aestivum, 30%.

For the compound `Cc1cccc(OCC(=O)N2N=C(Nc3ccc(Cl)cc3)SC2(C)C)c1`, the inhibition at 10 ppm in the experiment with Aspergillus niger [1] was 48%; in the experiment on Bipolaris oryzae [3], 38%. Also, the values for the inhibition at 100 ppm with Aspergillus niger [2] and in the experiment with Bipolaris oryzae [4] were 54% and 47%, respectively. Moreover, the values for the inhibition at 1000 ppm in the experiment with Aspergillus niger [5] and in the experiment on Bipolaris oryzae [6] were 63% and 59%, respectively. Further, the Activity in the experiment on Echinochloa crus-galli was found to be 50%; with Sorghum halepense, 60%; in the experiment on Setaria viridis, 50%; in the experiment with Abutilon theophrasti it was 40%; with Triticum aestivum, 10%.

On to `CC1(C)SC(Nc2ccccc2)=NN1C(=O)COc1ccccc1Cl`, for which the inhibition at 10 ppm in the experiment with Aspergillus niger [1] turned out to be 51%; in the experiment on Bipolaris oryzae [3] it was 31%. In addition, the inhibition at 100 ppm in the experiment on Aspergillus niger [2] worked out at 44%; in the experiment on Bipolaris oryzae [4], 42%. Also, the inhibition at 1000 ppm was 56% in the experiment with Aspergillus niger [5] and 52% in the experiment with Bipolaris oryzae [6]. Besides, the Activity in the experiment with Echinochloa crus-galli was found to be 60%; with Sorghum halepense, 70%; in the experiment with Setaria viridis, 50%; in the experiment on Abutilon theophrasti it was 40%; in the experiment with Triticum aestivum, 20%.

Consider `CC1(C)SC(Nc2ccc(Cl)cc2)=NN1C(=O)COc1ccccc1Cl`, for which the inhibition at 10 ppm is 49% with Aspergillus niger [1] and 39% in the experiment on Bipolaris oryzae [3]. For the same compound, the inhibition at 100 ppm with Aspergillus niger [2] is 50%; in the experiment with Bipolaris oryzae [4] it was 48%. The inhibition at 1000 ppm with Aspergillus niger [5] was found to be 62%; in the experiment on Bipolaris oryzae [6], 58%. Moreover, the Activity with Echinochloa crus-galli was 50%; with Sorghum halepense, 30%; with Setaria viridis, 50%; with Abutilon theophrasti, 40%; with Triticum aestivum, 10%.

For `CC1(C)SC(Nc2ccccc2)=NN1C(=O)COc1ccc(Cl)cc1`, the inhibition at 10 ppm with Aspergillus niger [1] stood at 45%; with Bipolaris oryzae [3], 59%. For the same compound, the inhibition at 100 ppm amounted to 69% in the experiment on Aspergillus niger [2] and 67% in the experiment on Bipolaris oryzae [4]. Also, the values for the inhibition at 1000 ppm with Aspergillus niger [5] and in the experiment on Bipolaris oryzae [6] were 78% and 76%, respectively. Besides, the Activity is reported as 50% in the experiment with Echinochloa crus-galli; 60% in the experiment with Sorghum halepense; 40% with Setaria viridis; 40% in the experiment with Abutilon theophrasti; 0% in the experiment on Triticum aestivum.

Take `COc1ccc(NC2=NN(C(=O)COc3cccc(C)c3)C(c3ccccc3)S2)cc1` (stereo unspecified): the values for the inhibition at 10 ppm in the experiment on Aspergillus niger [1] and with Bipolaris oryzae [3] were 51% and 50%, respectively. Besides, the inhibition at 100 ppm with Aspergillus niger [2] stood at 67%; in the experiment with Bipolaris oryzae [4], 65%. Besides, the inhibition at 1000 ppm in the experiment with Aspergillus niger [5] was 74%; in the experiment on Bipolaris oryzae [6], 72%. Further, the Activity in the experiment on Echinochloa crus-galli amounted to 100%; in the experiment with Sorghum halepense, 100%; with Setaria viridis, 100%; with Abutilon theophrasti it was 100%; in the experiment with Triticum aestivum it was 10%.

Regarding `Cc1ccc(NC2=NN(C(=O)COc3cccc(C)c3)C(c3ccccc3)S2)cc1` (stereo unspecified), the inhibition at 10 ppm is 47% with Aspergillus niger [1] and 46% in the experiment on Bipolaris oryzae [3]. Also, the values for the inhibition at 100 ppm in the experiment with Aspergillus niger [2] and in the experiment on Bipolaris oryzae [4] were 62% and 61%, respectively. The inhibition at 1000 ppm with Aspergillus niger [5] was found to be 70%; in the experiment on Bipolaris oryzae [6], 68%. The Activity in the experiment with Echinochloa crus-galli turned out to be 30%; in the experiment with Sorghum halepense it was 50%; in the experiment on Setaria viridis it was 20%; in the experiment with Abutilon theophrasti it was 60%; in the experiment with Triticum aestivum, 10%.

Consider `Cc1cccc(OCC(=O)N2N=C(Nc3ccc(Cl)cc3)SC2c2ccccc2)c1` (stereo unspecified), for which the values for the inhibition at 10 ppm with Aspergillus niger [1] and in the experiment on Bipolaris oryzae [3] were 40% and 38%, respectively. The inhibition at 100 ppm in the experiment on Aspergillus niger [2] turned out to be 49%; in the experiment with Bipolaris oryzae [4] it was 48%. The inhibition at 1000 ppm was determined as 62% in the experiment on Aspergillus niger [5] and 58% with Bipolaris oryzae [6]. For the same compound, the Activity with Echinochloa crus-galli is on record as 60%; in the experiment on Sorghum halepense, 60%; with Setaria viridis, 50%; in the experiment on Abutilon theophrasti, 50%; with Triticum aestivum, 15%.

On to `Cc1cccc(OCC(=O)N2N=C(Nc3ccccc3)SC2c2ccccc2)c1` (stereo unspecified), for which the inhibition at 10 ppm amounted to 38% with Aspergillus niger [1] and 39% in the experiment on Bipolaris oryzae [3]. The figures for the inhibition at 100 ppm in the experiment with Aspergillus niger [2] and in the experiment on Bipolaris oryzae [4] were 54% and 49%, respectively. In addition, the results for the inhibition at 1000 ppm in the experiment with Aspergillus niger [5] and with Bipolaris oryzae [6] were 67% and 61%, respectively. Besides, the Activity in the experiment on Echinochloa crus-galli was determined as 60%; in the experiment on Sorghum halepense, 60%; in the experiment on Setaria viridis, 60%; with Abutilon theophrasti, 60%; with Triticum aestivum it was 0%.

In the case of `COc1ccc(NC2=NN(C(=O)COc3ccccc3Cl)C(c3ccccc3)S2)cc1` (stereo unspecified), the inhibition at 10 ppm in the experiment with Aspergillus niger [1] and in the experiment with Bipolaris oryzae [3] was 44% throughout. In addition, the figures for the inhibition at 100 ppm in the experiment on Aspergillus niger [2] and in the experiment with Bipolaris oryzae [4] were 59% and 58%, respectively. For the same compound, the values for the inhibition at 1000 ppm with Aspergillus niger [5] and with Bipolaris oryzae [6] were 65% and 63%, respectively. For the same compound, the Activity is reported as 100% with Echinochloa crus-galli; 90% with Sorghum halepense; 100% in the experiment on Setaria viridis; 100% with Abutilon theophrasti; 10% with Triticum aestivum.

For `Cc1ccc(NC2=NN(C(=O)COc3ccccc3Cl)C(c3ccccc3)S2)cc1` (stereo unspecified), the inhibition at 10 ppm with Aspergillus niger [1] is 43%; with Bipolaris oryzae [3] it was 39%. Besides, the inhibition at 100 ppm in the experiment with Aspergillus niger [2] was found to be 52%; in the experiment on Bipolaris oryzae [4], 50%. Also, the inhibition at 1000 ppm in the experiment with Aspergillus niger [5] is 65%; in the experiment on Bipolaris oryzae [6], 60%. Besides, the Activity with Echinochloa crus-galli was 50%; with Sorghum halepense it was 60%; in the experiment on Setaria viridis, 50%; in the experiment on Abutilon theophrasti, 40%; with Triticum aestivum it was 30%.

On to `O=C(COc1ccccc1Cl)N1N=C(Nc2ccc(Cl)cc2)SC1c1ccccc1` (stereo unspecified), for which the inhibition at 10 ppm in the experiment with Aspergillus niger [1] and with Bipolaris oryzae [3] was 78% each time. Also, the inhibition at 100 ppm in the experiment on Aspergillus niger [2] is 83%; with Bipolaris oryzae [4] it was 80%. Also, the inhibition at 1000 ppm in the experiment with Aspergillus niger [5] and in the experiment with Bipolaris oryzae [6] was 92% in each case. Moreover, the Activity worked out at 60% in the experiment on Echinochloa crus-galli; 40% in the experiment on Sorghum halepense; 60% in the experiment on Setaria viridis; 50% in the experiment with Abutilon theophrasti; 25% with Triticum aestivum.

For `COc1ccc(NC2=NN(C(=O)COc3cccc(C)c3)C(C)(C)S2)cc1`, the values for the inhibition at 10 ppm with Aspergillus niger [1] and in the experiment with Bipolaris oryzae [3] were 43% and 36%, respectively. Further, the values for the inhibition at 100 ppm with Aspergillus niger [2] and in the experiment with Bipolaris oryzae [4] were 58% and 54%, respectively. Besides, the inhibition at 1000 ppm in the experiment with Aspergillus niger [5] stood at 69%; with Bipolaris oryzae [6], 65%. Besides, the Activity in the experiment with Echinochloa crus-galli is reported as 100%; in the experiment with Sorghum halepense it was 100%; in the experiment with Setaria viridis, 100%; in the experiment with Abutilon theophrasti, 100%; in the experiment on Triticum aestivum it was 10%.

In the case of `O=C(COc1ccccc1Cl)N1N=C(Nc2ccccc2)SC1c1ccccc1` (stereo unspecified), the inhibition at 10 ppm in the experiment on Aspergillus niger [1] is 77%; with Bipolaris oryzae [3], 75%. The inhibition at 100 ppm with Aspergillus niger [2] is 82%; with Bipolaris oryzae [4] it was 80%. The inhibition at 1000 ppm with Aspergillus niger [5] was 92%; in the experiment on Bipolaris oryzae [6] it was 90%. Besides, the Activity is on record as 50% with Echinochloa crus-galli; 60% with Sorghum halepense; 50% in the experiment with Setaria viridis; 50% in the experiment with Abutilon theophrasti; 20% in the experiment on Triticum aestivum.

For orientation: inhibition means the relative decrease from the control value, in per cent.
